Reference: patent publication US20040110777A1, “Quinazolinones and pyridinylpyrimidinones for controlling invertebrate pests” (priority 2003, published 2004)

melting point: 132 to 135 °C
SMILES: Cc1nc(C(F)(F)F)ccc1-c1nc2c(C)cccc2c(=O)n1C(C)C [Compound 5, 8-methyl-3-(1-methylethyl)-2-[2-methyl-6-(trifluoromethyl)-3-pyridinyl]-4(3H)-quinazolinone]
